One block for each compound: values may come before it. The source made the active and inactive calls.
Assays:
[1] = inhibitors of CMV-promoter luciferase reporter, dose response, counter-screen for Pax8 inhibitor project, cell-based, HEK293, luminescence, dry powder (AID 743020); assay type: functional
[2] = non-specific cell cytotoxicity, dose response, cytotoxicity control for PAX8 inhibitor project, plate reader, dry powder samples (AID 743021); assay type: functional, cell-based
[3] = cytotoxicity in OVCAR8 ovarian cancer cells, dose response, PAX8 project, cell-based, plate reader, dry powder samples (AID 743197); assay type: functional; conditions: OVCAR-8
[4] = NIH:OVCAR-3 ovarian cancer cell cytotoxicity, dose response, PAX8 inhibitor project, plate reader, dry powder samples (AID 743044); assay type: functional, cell-based
[5] = IGROV1 ovarian cancer cell cytotoxicity, dose response, PAX8 inhibitor project, plate reader, dry powder samples (AID 743043); assay type: functional, cell-based; conditions: IGROV-1
Paired box protein Pax-8 = Paired box protein Pax-8 (Homo sapiens, UniProt Q06710); assay: inhibitors of PAX8-driven TPO luciferase reporter, dose response, RMG-I cells, cherry-pick (AID 687027); assay type: functional, cell-based;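 also: luciferase reporter driven by Pax8 target thyroperoxidase promoter measured by SteadyGlo luminescence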
[6] = A2780 ovarian cancer cell cytotoxicity, dose response, cytotoxicity control, plate reader, dry powder samples (AID 743046); assay type: functional, cell-based
[7] = IOSE-T80 ovarian epithelial cell cytotoxicity, dose response, cytotoxicity control for PAX8 inhibitor project, plate reader, dry powder samples (AID 743045); assay type: functional, cell-based
[8] = molecular target: Endoplasmic reticulum aminopeptidase 1 (Homo sapiens, UniProt Q9NZ08); assay: ERAP1 aminopeptidase inhibitors, dose response, biochemical, cherry-pick, set 2, plate reader (AID 743314)
[9] = molecular target: Tyrosyl-DNA phosphodiesterase 2 (Homo sapiens, UniProt O95551); assay: human TDP2 enzyme inhibitors, dose response, biochemical, epi absorbance, IC50 (AID 743297)
Caspase-3 = molecular target: T1, Caspase-3 (Homo sapiens, UniProt P42574); assay type: functional;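 also: Dose-response selectivity test against caspase-3 for candidate inhibitors of sentrin-specific proteases (SENPs)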
T1 sequence (P42574 whole entry): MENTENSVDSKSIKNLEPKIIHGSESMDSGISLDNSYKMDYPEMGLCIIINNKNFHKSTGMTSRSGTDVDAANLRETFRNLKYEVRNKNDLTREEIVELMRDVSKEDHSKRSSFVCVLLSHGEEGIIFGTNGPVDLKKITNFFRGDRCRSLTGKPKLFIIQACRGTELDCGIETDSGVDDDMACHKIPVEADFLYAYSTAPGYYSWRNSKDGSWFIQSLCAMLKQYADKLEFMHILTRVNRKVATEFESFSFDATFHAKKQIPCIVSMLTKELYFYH

[10] = molecular target: T2, Probable nicotinate-nucleotide adenylyltransferase (Staphylococcus aureus (strain N315), UniProt P65502); assay type: functional, Staphylococcus aureus subsp. aureus N315; conditions: read-out: IC50_Mean;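 as to IC50 Mean: confirmatory dose-response retesting of NadD inhibitor hits first found in an ultra-high-throughput screen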
[11] = molecular target: Luciferin 4-monooxygenase (Photinus pyralis, UniProt P08659); assay: firefly luciferase enzyme inhibitors, dose response, biochemical, luminescence (AID 1891)
[12] = Luminescence Cell-Based Dose Confirmation HTS to Identify Inhibitors of Platelet Dense Granule Release. [Related pubchem assays: 1663 (Primary HTS), 1678 (Summary of Project)]; assay type: functional
[13] = molecular target: T3, Sentrin-specific protease 8 (Homo sapiens, UniProt Q96LD8); assay type: functional;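 also: luminescence read-out of SENP8 inhibition, dose-response confirmation following an ultra-high-throughput screen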
T3 sequence (Q96LD8 whole entry): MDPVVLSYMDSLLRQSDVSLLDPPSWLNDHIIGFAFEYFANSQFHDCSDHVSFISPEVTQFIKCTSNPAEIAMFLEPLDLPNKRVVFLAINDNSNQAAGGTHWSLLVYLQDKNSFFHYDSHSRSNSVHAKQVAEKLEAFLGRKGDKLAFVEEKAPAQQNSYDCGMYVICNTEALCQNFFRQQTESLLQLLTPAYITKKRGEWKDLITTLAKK

[14] = molecular target: T4, Sentrin-specific protease 6 (Homo sapiens, UniProt Q9GZR1); assay type: functional;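 also: Luminescence-based dose-response confirmatory assay of SENP6 inhibition, following up an ultra-high-throughput screen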
T4 sequence (Q9GZR1 whole entry): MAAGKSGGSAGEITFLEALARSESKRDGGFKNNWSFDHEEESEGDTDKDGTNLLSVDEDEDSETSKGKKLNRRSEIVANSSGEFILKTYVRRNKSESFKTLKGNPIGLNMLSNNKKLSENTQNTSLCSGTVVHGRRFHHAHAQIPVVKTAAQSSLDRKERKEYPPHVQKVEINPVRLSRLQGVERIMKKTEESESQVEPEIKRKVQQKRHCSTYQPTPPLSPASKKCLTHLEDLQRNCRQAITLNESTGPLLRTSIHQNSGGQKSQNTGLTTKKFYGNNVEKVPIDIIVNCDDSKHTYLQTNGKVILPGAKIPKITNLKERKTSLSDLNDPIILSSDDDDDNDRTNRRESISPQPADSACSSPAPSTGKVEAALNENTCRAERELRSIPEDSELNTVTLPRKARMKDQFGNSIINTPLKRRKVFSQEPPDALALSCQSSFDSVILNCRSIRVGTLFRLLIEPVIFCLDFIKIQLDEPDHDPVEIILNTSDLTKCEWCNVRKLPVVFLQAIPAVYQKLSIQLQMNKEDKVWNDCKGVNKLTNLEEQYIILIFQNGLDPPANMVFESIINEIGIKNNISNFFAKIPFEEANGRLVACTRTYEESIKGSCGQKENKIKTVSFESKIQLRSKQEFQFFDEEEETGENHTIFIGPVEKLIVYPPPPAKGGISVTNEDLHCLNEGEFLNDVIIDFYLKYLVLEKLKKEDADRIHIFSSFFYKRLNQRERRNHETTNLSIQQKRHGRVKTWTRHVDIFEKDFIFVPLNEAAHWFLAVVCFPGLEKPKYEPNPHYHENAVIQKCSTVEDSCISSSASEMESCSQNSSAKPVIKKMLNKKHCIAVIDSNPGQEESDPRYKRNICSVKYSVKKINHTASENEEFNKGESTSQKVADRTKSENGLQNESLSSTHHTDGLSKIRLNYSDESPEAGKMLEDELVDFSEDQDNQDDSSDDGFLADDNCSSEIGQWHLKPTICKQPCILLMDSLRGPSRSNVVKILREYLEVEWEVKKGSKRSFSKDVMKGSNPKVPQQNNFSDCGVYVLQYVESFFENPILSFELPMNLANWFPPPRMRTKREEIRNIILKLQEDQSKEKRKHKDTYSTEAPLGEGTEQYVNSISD

[15] = HEK293T cytotoxicity, dose response, cytotoxicity control for miR-122 modulator project, cell-based, inhibitor set, cherry-pick, set 2 (AID 720697); assay type: functional
[16] = molecular target: T2, Probable nicotinate-nucleotide adenylyltransferase; assay type: functional, Staphylococcus aureus subsp. aureus N315
[17] = molecular target: T5, Sentrin-specific protease 7 (Homo sapiens, UniProt Q9BQF6); assay type: functional;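 also: Luminescence-based dose-response confirmation of ultra-high-throughput screening hits, measuring inhibition of SENP7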
T5 sequence (Q9BQF6 whole entry): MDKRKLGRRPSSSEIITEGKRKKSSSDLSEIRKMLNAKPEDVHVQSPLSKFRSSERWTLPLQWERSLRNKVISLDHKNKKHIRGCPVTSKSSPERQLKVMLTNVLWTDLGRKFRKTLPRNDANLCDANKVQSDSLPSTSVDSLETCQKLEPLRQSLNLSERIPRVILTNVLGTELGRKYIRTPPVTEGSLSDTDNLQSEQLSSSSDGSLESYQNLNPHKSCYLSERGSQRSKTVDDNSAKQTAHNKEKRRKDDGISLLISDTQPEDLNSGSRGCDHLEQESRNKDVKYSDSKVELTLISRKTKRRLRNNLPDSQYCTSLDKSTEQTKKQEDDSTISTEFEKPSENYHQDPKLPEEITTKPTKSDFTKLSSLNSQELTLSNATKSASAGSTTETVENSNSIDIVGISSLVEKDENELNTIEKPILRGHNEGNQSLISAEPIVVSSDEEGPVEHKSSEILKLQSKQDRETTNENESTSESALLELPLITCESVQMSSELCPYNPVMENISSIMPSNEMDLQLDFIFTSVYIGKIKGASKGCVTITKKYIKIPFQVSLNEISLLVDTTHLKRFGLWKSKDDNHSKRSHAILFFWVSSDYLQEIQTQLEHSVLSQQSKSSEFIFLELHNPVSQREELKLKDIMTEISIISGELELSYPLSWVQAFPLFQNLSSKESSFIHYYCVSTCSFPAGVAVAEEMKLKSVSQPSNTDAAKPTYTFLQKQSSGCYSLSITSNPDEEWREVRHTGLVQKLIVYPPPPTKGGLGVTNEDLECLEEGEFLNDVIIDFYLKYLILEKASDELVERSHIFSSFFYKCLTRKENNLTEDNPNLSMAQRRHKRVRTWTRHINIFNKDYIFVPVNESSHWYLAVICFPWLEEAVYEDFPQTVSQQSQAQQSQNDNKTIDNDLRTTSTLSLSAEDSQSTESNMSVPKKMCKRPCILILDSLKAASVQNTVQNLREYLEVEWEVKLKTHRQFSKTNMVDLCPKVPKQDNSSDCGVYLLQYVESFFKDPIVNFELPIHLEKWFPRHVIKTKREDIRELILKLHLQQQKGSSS

[18] = cytotoxicity in COV362 ovarian cancer cells, dose response, cytotoxicity control for PAX8 inhibitor project, cell-based, plate reader, dry powder, SA12 (AID 743144); assay type: functional
[19] = cytotoxicity in OVCAR4 cells, dose response, cytotoxicity control for PAX8 inhibitor project, cell-based, plate reader, dry powder, SA11 (AID 743150); assay type: functional; conditions: OVCAR-4
[20] = cytotoxicity in COV434 cells, dose response, cytotoxicity control for PAX8 inhibitor project, cell-based, plate reader, dry powder, SA7 (AID 743145); assay type: functional
[21] = cytotoxicity in OV-90 ovarian cancer cells, dose response, PAX8 inhibitor project, cell-based, plate reader, dry powder, SA8 (AID 743149); assay type: functional
INS1 = assay: beta cell apoptosis inhibitors, cytokine rescue, dose response, luminescence, retest (AID 449756); assay type: functional, cell-based; conditions: Rattus norvegicus;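 also: cell death triggered by IL-1 beta plus TNF-alpha plus IFN-gamma mixture; protective hits raise ATP signal compared with cytokine alone wells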
[22] = human group III sPLA2 inhibitors, dose response, biochemical, QFRET, IC50 (AID 743457);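 also: green fluorescence rise as the enzyme cleaves BODIPY PC-A2 in liposomes; potency for inhibition of the enzyme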
cells [23] = assay type: functional, cell-based
[24] = tested on: Streptococcus sp. 'group A'; assay: growth inhibition of control SK(-) GAS strain, dose response, counter-screen for streptokinase expression inhibitor project, luminescence, kanamycin, BacTiterGlo, confirmation (AID 1900); assay type: functional, organism-based
cells [25] = assay type: functional, cell-based; remark: listed apart in the source
Streptococcus = assay: Group A Streptococcus viability loss, dose response, counter-screen for streptokinase expression inhibitor project, luminescence, BacTiterGlo (AID 1915); assay type: functional, organism-based;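 also: potency for reduction of bacterial viability or growth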
Kallikrein-7 = Kallikrein-7 (Homo sapiens, UniProt P49862); assay: Fluorescence Intensity-based biochemical primary high throughput dose response assay to identify activators of kallikrein-7 (K7) zymogen.
Kallikrein-7, sequence (P49862 whole entry): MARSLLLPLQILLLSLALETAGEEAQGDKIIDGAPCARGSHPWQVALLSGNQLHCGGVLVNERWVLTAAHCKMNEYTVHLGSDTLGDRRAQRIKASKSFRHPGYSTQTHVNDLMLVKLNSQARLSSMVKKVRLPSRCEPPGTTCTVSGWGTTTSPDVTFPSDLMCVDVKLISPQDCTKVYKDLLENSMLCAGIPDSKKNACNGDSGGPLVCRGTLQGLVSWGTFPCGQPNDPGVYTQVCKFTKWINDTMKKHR

Endoplasmic reticulum aminopeptidase 1, sequence (Q9NZ08 whole entry): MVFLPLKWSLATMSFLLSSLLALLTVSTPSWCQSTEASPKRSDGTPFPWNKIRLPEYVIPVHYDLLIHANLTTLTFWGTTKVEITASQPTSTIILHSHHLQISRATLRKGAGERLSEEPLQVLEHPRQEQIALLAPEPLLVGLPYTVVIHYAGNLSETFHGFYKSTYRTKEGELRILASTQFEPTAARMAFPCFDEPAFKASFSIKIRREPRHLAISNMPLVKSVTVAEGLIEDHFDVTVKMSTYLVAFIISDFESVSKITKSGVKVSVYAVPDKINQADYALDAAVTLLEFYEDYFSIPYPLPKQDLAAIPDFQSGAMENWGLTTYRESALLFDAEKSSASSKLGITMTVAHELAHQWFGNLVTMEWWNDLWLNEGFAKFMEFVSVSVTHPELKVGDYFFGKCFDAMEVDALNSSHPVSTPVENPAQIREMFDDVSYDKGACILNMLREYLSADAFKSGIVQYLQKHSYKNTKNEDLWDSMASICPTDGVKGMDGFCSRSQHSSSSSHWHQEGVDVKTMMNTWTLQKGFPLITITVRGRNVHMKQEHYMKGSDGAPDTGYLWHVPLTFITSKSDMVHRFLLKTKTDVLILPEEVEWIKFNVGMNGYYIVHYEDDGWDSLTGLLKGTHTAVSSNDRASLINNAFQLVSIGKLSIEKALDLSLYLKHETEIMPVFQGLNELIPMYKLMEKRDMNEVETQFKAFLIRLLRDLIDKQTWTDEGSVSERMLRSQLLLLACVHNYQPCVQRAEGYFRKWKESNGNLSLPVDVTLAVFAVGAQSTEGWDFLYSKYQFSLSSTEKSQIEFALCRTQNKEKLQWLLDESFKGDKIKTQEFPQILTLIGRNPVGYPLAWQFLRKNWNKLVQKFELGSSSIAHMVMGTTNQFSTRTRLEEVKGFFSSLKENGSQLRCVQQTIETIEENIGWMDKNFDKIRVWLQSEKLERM
Paired box protein Pax-8, sequence (Q06710 whole entry): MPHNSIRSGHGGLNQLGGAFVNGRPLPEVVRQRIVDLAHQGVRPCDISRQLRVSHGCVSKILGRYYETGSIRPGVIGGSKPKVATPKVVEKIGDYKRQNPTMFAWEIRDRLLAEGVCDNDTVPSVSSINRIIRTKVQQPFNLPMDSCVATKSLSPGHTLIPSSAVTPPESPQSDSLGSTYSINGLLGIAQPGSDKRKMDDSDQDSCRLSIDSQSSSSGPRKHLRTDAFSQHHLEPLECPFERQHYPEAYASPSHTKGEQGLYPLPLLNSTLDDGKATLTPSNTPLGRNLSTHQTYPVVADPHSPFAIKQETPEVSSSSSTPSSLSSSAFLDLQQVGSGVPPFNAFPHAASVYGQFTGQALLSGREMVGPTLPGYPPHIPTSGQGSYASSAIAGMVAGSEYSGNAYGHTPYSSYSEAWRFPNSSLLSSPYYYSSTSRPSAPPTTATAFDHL
Tyrosyl-DNA phosphodiesterase 2, sequence (O95551 whole entry): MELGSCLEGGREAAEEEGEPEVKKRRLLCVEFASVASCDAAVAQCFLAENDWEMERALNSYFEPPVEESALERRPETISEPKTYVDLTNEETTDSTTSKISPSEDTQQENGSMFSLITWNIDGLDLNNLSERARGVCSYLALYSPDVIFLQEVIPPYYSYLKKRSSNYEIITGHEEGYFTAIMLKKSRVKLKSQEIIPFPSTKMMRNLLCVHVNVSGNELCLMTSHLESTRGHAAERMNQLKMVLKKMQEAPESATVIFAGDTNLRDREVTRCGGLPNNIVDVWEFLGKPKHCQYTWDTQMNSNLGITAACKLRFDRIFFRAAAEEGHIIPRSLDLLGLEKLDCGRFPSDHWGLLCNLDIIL
Luciferin 4-monooxygenase, sequence (P08659 whole entry): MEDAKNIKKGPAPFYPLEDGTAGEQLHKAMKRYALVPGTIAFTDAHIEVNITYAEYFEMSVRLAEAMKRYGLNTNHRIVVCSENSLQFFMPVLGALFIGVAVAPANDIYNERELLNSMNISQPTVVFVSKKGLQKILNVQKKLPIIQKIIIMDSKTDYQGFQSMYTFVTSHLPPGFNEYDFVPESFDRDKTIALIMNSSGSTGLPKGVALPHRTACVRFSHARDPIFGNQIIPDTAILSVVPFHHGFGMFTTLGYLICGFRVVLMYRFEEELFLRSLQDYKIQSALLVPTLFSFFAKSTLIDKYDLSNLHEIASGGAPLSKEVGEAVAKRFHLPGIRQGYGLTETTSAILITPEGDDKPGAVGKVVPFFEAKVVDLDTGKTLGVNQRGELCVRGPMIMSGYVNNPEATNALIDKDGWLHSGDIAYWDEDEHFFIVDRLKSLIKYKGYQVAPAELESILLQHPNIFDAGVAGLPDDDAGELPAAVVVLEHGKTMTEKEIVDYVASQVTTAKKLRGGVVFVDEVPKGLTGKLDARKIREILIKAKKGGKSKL

Structure (SMILES): C[C@@H]1CN([C@H](C)CO)C(=O)c2cc(NS(=O)(=O)c3ccc(Cl)cc3)ccc2O[C@@H](C)CCCCO[C@H]1CN(C)Cc1ccc(C(F)(F)F)cc1
AC50 [1]: 31.8 µM (active)
AC50 [2]: 3.68 µM (active)
AC50 [3]: 21.6 µM (active)
AC50 [4]: 10.6 µM (active)
AC50 [5]: 21.3 µM (active)
AC50 (Paired box protein Pax-8): 6.62 µM (active)
AC50 [6]: 10.8 µM (active)
AC50 [7]: 20.2 µM (active)

Structure (SMILES): COc1cccc(OCc2cc(/C=N/Nc3ccc(C(=O)O)cc3)ccc2OC)c1
IC50 (Caspase-3): 22.4 µM (active)
IC50 [10]: 25.5 µM (active)
EC50 [11]: 4.64 µM (active)
EC50 [12]: 84.7 µM (active)
IC50 [13]: 15.7 µM (active)
IC50 [14]: 6.91 µM (active)
AC50 [15]: 7.48 µM (active)
IC50 [16]: 7.37 µM (active)
IC50 [17]: 8.85 µM (active)

Structure (SMILES): CN1CC(=O)N2C(c3ccc(Cl)cc3)c3[nH]c4ccccc4c3C[C@H]2C1=O (stereo partly drawn)
AC50 [18]: 9.73 µM (active)
AC50 [19]: 10.3 µM (active)
AC50 (Paired box protein Pax-8): 10.3 µM (active)
AC50 [20]: 21.4 µM (active)
AC50 [21]: > 100 µM (inactive)

Structure (SMILES): Cc1ccn2c(Nc3ccccc3C)c(-c3ccccn3)nc2c1
AC50 (INS1): 5.32 µM (active)
IC50 [22]: 67.9 µM (inactive)
EC50 (cells [23]): 146 µM (active)
EC50 [24]: 2.75 µM (active)
EC50 (cells [25]): > 350 µM (not active)
EC50 (Streptococcus): 6.24 µM (active)

Continued, values first:

AC50 [8]: 2.92 µM (active)
Structure (SMILES): CCC(=O)N(C)C[C@H]1Oc2ncc(C#Cc3ccncc3)cc2C(=O)N([C@H](C)CO)C[C@H]1C

IC50 [9]: 79.9 µM (inactive)
Structure (SMILES): Nc1c2c(O)nc(O)cc2nn1-c1ccccc1

EC50 (Kallikrein-7): > 69.5 µM (inactive)
Structure (SMILES): COc1cc2ccccc2cc1C(=O)OCC(=O)N1CCOCC1

IC50 [22]: > 122 µM (inactive)
Structure (SMILES): Cc1cccc(N=C(S)NNC(=O)c2ccc(O)cc2O)c1C

AC50 [8]: 5.76 µM (active)
Structure (SMILES): Cc1cc(=O)oc2c(CN3CCCC3)c(O)c(Cl)cc12
